Experimental data as given in US6632832B1 (Dabur Research Foundation, priority 2002, dated 2003).
In brackets after ≈: the same amount, converted by molar mass. Where two headings read alike, the source gives them in different places.

Key:
[1] = system: B16F10 (melanoma); experiment: MTT cytotoxicity assay, 72 hours; assay type: cell-based, human; conditions: 72 h MTT
Procedure: (§1) After 72 hours, the assay was terminated and percent cyotoxicities calculated.

[2] = system: DU145 (prostate); experiment: MTT cytotoxicity assay, 72 hours; assay type: cell-based, human; conditions: 72 h MTT
Procedure: as §1

[3] = system: HBL100 (breast); experiment: MTT cytotoxicity assay, 72 hours; assay type: cell-based, human; conditions: 72 h MTT
Procedure: as §1

[4] = system: KB (oral); experiment: MTT cytotoxicity assay, 72 hours; assay type: cell-based, human; conditions: 72 h MTT
Procedure: as §1

[5] = system: L132 (lung); experiment: MTT cytotoxicity assay, 72 hours; assay type: cell-based, human; conditions: 72 h MTT
Procedure: as §1

[6] = system: MiaPaCa.2 (pancreas); experiment: MTT cytotoxicity assay, 72 hours; assay type: cell-based, human; conditions: 72 h MTT
Procedure: as §1

[7] = system: PA1 (ovary); experiment: MTT cytotoxicity assay, 72 hours; assay type: cell-based, human; conditions: 72 h MTT
Procedure: as §1

[8] = system: PTC (colon); experiment: MTT cytotoxicity assay, 72 hours; assay type: cell-based, human; conditions: 72 h MTT
Procedure: as §1

[9] = system: U87.MG (glioblastoma); experiment: MTT cytotoxicity assay, 72 hours; assay type: cell-based, human; conditions: 72 h MTT
Procedure: as §1

[10] = system: Human Colon, Ovary, melanoma, Leukemia, Glioblastoma, Prostate, oral and Lung tumor cell lines; experiment: MTT cytotoxicity assay, summary over the tumor cell line panel; assay type: cell-based
Procedure: as §1

[11] = system: EGF dependent proliferation in human pancreatic cancer cells (MiaPaCa2); experiment: EGF dependent proliferation, percent viable cells by MTT in sera free conditions; assay type: cell-based; design: dose or concentration left out as unconfirmed; conditions: Carvedilol for 16 hours, then varying EGF for 48 hours
Procedure: Briefly, 10000 human pancreatic cancer cells (MiaPaCa2) were seeded per well in a 96-well culture plate in DMEM containing 5% FCS. All experiments were carried out in triplicates at 37° C. in a CO2 incubator. The cells were incubated for a period of 12 hours, washed once with PBS and the medium was changed to DMEM without Fetal calf serum (FCS). […] The untreated control cells were treated with 1% DMSO in DMEM. The cells were washed with PBS and incubated with varying concentrations of EGF in DMEM without FCS for a period of 48 hours. The percent viable cells in absence and presence of Carvedilol was determined in an MTT assay in vitro.

[12] = system: PDGF dependent proliferation in human pancreatic cancer cells (MiaPaCa2); experiment: PDGF dependent proliferation, percent viable cells by MTT in sera free conditions; assay type: cell-based; conditions: Carvedilol 20 ug/ml for 16 hours, then varying PDGF for 48 hours
Procedure: Briefly, 10000 human pancreatic cancer cells (MiaPaCa2) were seeded per well in a 96-well culture plate in DMEM containing 5% fetal calf serum (FCS). All experiments were carried out in triplicates at 37° C. in a CO2 incubator. The cells were incubated for a period of 12 hours, washed once with PBS and the medium was changed to DMEM without FCS. […] The untreated control cells were treated with 1% DMSO in DMEM. […] The percent viable cells in absence and presence of Carvedilol was determined in an MTT assay in vitro.

[13] = system: human pancreatic cancer cells (MiaPaCa2); experiment: Cytotoxicity abrogation assay with intracellular blocking of PI3 kinase by Wortmannin; assay type: cell-based
Procedure: Briefly, 10000 human pancreatic cancer cells (MiaPaCa2) were seeded per well in a 96-well culture plate in DMEM containing 5% FCS. All experiments were carried out in triplicate at 37° C. in CO2 incubator. The plates were incubated overnight to allow complete reattachment of the cells. Subsequently, the medium was replaced with DMEM. The cells were incubated with varying concentrations of Wortmannin,the specific inhibitor of PI3 kinase for a period of three hours. Wortmannin was dissolved in 0.5% DMSO. The control cells were treated with 0.5% DMSO. The cells were washed with PBS, and the medium was changed to fresh DMEM.

[14] = system: Cyclooxygenase 2 enzyme; experiment: COX2 activity by PGE2 quantitation in MiaPaCa2 cells; assay type: cell-based, human
Procedure: 1×10^6 human pancreatic cancer cells (MiaPaCa2) were plated in 6 well plates in RPMI containing 10% FCS. The cells were incubated for a period of 24 hours at 37° C. in 5% CO2. The medium was changed to DMEM without serum. […] All experiments were carried out in duplicates. […] The medium was aspirated to remove Bisindolemaleimide, and the cells were washed twice with PBS. […] The cells were incubated at 37° C. for one hour. Indomethacin at a concentration of 10 ug/ml was added to the wells to block the COX enzyme. […] The cells were lysed (2.5% dodecyltrimethylammonium) and incubated for 10 minutes at room temperature. The cell lysates were transferred to microtitre plate coated with goat anti mouse Ig coated plate. 50 microliter of PGE2 standards ranging from 2.5 to 320 pg/ml were added to the microtitre plate in duplicates. 50 microliter of mouse anti PGE2 and 50 microliter of PGE2 conjugated peroxidase was added to the wells. The plate was covered and incubated at room temperature for one hour on a microtitre plate shaker. The wells were aspirated and washed 4 times with suitable was buffer. 150 microlire of enzyme substrate was added to all the wells. […] The OD was read at 450 nm.
The levels of secreted and intracellular PGE2 were quantitated in cells treated with or without bisindolemaleimide.

[15] = system: B16F10 melanoma tumor xenografts; experiment: B16F10 melanoma xenograft model in nude mice; assay type: in vivo, Balb/c athymic mice; conditions: for tumor inhibition based on tumor volumes compared with untreated controls: oral gavage once a day, Day 19
Procedure: Melanoma tumor xenografts were initiated in Balb/c athymic mice by subcutaneous inoculation of a single cell suspension of B16F10 cells (10×10^6 cells/100 μL). The tumor-bearing mice were divided into three groups of 4 animals each. […] The third group served as control. […] The anti-tumor activity was monitored by measuring the tumors using a vernier caliper every fourth day and calculating volumes using the formula 0.4×W^2×L(W=smaller dia, L=larger dia,).

[16] = Acute toxicity in mice; assay type: in vivo; conditions: Swiss albino mice weighing 25 grams, observed for two weeks
Procedure: Acute toxicity studies were performed using two preferred routes of administration: intravenous and oral administration.

SMILES: COc1ccccc1OCCNCC(O)COc1cccc2[nH]c3ccccc3c12 (racemic) [Carvedilol, (±)-1-(carbazol-4-yloxy)-3-[(2-(o-methoxyphenoxy)ethyl]amino]-2-propanol]
- ED50 ([1]; B16.F10 (Melanoma), Table 2): 10.5 ± 1.7 µg/mL (≈ 25.8 µM)
- ED50 ([1]; B16F10 (melanoma)): 10.5 ± 1.7 µg/mL (≈ 25.8 µM)
- ED50 [2]: 9.0 ± 0.9 µg/mL (≈ 22.1 µM)
- ED50 ([3]; HBL100 (Breast), Table 2): 29.0 ± 4.2 µg/mL (≈ 71.3 µM)
- ED50 ([3]; HBL100 (breast)): 29.0 ± 4.2 µg/mL (≈ 71.3 µM)
- ED50 ([4]; KB (Oral), Table 2): 12.0 ± 1.8 µg/mL (≈ 29.5 µM)
- ED50 ([4]; KB (oral)): 12.0 ± 1.8 µg/mL (≈ 29.5 µM)
- ED50 ([5]; L132 (Lung), Table 2): 16.0 ± 3.1 µg/mL (≈ 39.4 µM)
- ED50 ([5]; L132 (lung)): 16.0 ± 3.1 µg/mL (≈ 39.4 µM)
- ED50 ([6]; MiaPaCa.2 (Pancreas), Table 2): 33.0 ± 4.6 µg/mL (≈ 81.2 µM)
- ED50 ([6]; MiaPaCa.2 (pancreas)): 33.0 ± 4.6 µg/mL (≈ 81.2 µM)
- ED50 ([7]; PA1 (ovary)): 11.5 ± 2.1 µg/mL (≈ 28.3 µM)
- ED50 ([7]; PA-1 (Ovary), Table 2): 11.5 ± 2.1 µg/mL (≈ 28.3 µM)
- ED50 ([8]; PTC (Colon), Table 2): 7.0 ± 0.7 µg/mL (≈ 17.2 µM)
- ED50 ([8]; PTC (colon)): 7.0 ± 0.7 µg/mL (≈ 17.2 µM)
- ED50 ([9]; U87.MG (glioblastoma)): 14.5 ± 2.2 µg/mL (≈ 35.7 µM)
- ED50 ([9]; U87MG (Glioblastoma), Table 2): 14.5 ± 2.2 µg/mL (≈ 35.7 µM)
- cytotoxicity at a fixed concentration (FIG. 1) ([10]; 20 μg/ml, all of the above-mentioned tumor cell lines, except oral): high cytotoxicity effect
- ED50 values ([10]; Colon, Ovary, melanoma, Leukemia, Glioblastoma, Prostate, oral and Lung tumor cell lines): less than 20 μg/ml
- effect on EGF dependent proliferation (FIG. 2) [11]: inhibits the EGF dependent proliferation in pancreatic cancer cells in a dose dependent manner
- effect on PDGF dependent proliferation (FIG. 3) [12]: inhibits the PDGF dependent proliferation in human pancreatic cancer cells in a dose dependent manner
- cytotoxicity at 20 µg/mL ([13]; MIA PaCa-2, 48 h, read-out: % Cytotoxicity of Carvedilol (20 ug/ml), MiaPaCa2, 48 hours, Wortamannin Nil): 50%
- cytotoxicity at 20 µg/mL ([13]; MIA PaCa-2, read-out: % Cytotoxicity of Carvedilol (20 ug/ml), MiaPaCa2, 48 hours, preincubated with Wortamannin 0.5 nM): 22%
- cytotoxicity at 20 µg/mL ([13]; MIA PaCa-2, read-out: % Cytotoxicity of Carvedilol (20 ug/ml), MiaPaCa2, 48 hours, preincubated with Wortamannin 1.0 nM): 20%
- cytotoxicity at 20 µg/mL ([13]; MIA PaCa-2, read-out: % Cytotoxicity of Carvedilol (20 ug/ml), MiaPaCa2, 48 hours, preincubated with Wortamannin 1.5 nM): 19%
- cytotoxicity at 20 µg/mL ([13]; MIA PaCa-2, read-out: % Cytotoxicity of Carvedilol (20 ug/ml), MiaPaCa2, 48 hours, preincubated with Wortamannin 2.0 nM): 18%
- effect on COX2 activity (FIG. 5) ([14]; MiaPaCa2, 10 ug/ml and 20 ug/ml for 4 hours, secreted and intracellular PGE2): inhibits the COX2 activity
- effect on COX 2 activity after blocking of PKC ([14]; MiaPaCa2 preincubated with Bisindolemaleimide (1 uM) for 4 hours): abrogates the effect of Carvedilol on COX 2 activity
- tumor inhibition based on tumor volumes compared with untreated controls ([15]; 300 ug/day): 37.3%
- tumor inhibition based on tumor volumes compared with untreated controls ([15]; 600 ug/day): 59.1%
- pattern of tumor growth (FIG. 6) ([15]; both doses (300 and 600 ug/day oral)): delayed tumor growth and tumor regression
- safe dose ([16]; i.v.): 0.15 mg
- safe dose ([16]; oral): 3 mg
